# Experimental data taken from patent publication US10143202B2, “Synergistic blends of antimicrobials useful for controlling microorganisms in industrial processes” (Solenis Technologies, L.P., priority 2014, dated 2018).
# How the values were obtained:
# [1] = test system: Lactobacillus plantarum; assay: Minimal Inhibitory Concentration (MIC), two-fold dilution series in 96 well microplate, antimicrobial used alone; assay type: cell-based; details: pH 5, 18-24 hours, complete inhibition of growth
# Description: This is the lowest concentration of a substance or substances which can achieve complete inhibition of growth.
# In order to determine the Minimal Inhibitory Concentration, a two-fold dilution series of the antimicrobial is constructed with the dilutions being made in growth media. The dilutions are made in a 96 well microplate such that each well has a final volume of 280 μl of media and antimicrobial. […] After the dilution series is constructed the wells receive an inoculum of microbe suspended in growth media such that the final concentration of microbes in the well is ˜5×10^5 cfu/ml. In these examples the test microbe used is Lactobacillus plantarum. The cultures are incubated at an appropriate temperature for 18-24 hours, and the wells scored as positive or negative for growth based on a visual examination for turbid wells.
# [2] = test system: Weisella confusa; details: cited from earlier work
# [3] = test system: fermentation; details: cited from earlier work
compound,measurement,setting,value
"[O][Cl+][O-] [ClO2, chlorine dioxide]","ClO2 MIC (QA), Used Alone",[1],54 ppm
"O=C(O)CC(O)(CC(=O)O)C(=O)O [Citric Acid, citric acid]",MIC,"[1]; Lactiplantibacillus plantarum, read-out: Citric Acid MIC (QC), Used Alone",6250 µg/mL
same,"Citric Acid MIC (QC), Used Alone",[1],6250 ppm
Virginiamycin,Concentration required to inhibit growth of Weisella confusa,[2],over 25 mg/L
same,Concentration that will suppress fermentation,[3],over 2 mg/L
